Assays:
[1] = system: SK-HEP-1 cells; assay: Cell protection assay: viability of SK-HEP-1 cells incubated with fludarabine, CCK-8 assay, 4-parameter logistic potency analysis; settings: fludarabine 10 μg/ml, 72 hours
Experimental: The human liver sinusoidal endothelial cell line SK-HEP-1 was obtained from the American Type Culture Collection (ATCC) and cultured in complete EMEM medium in a humidified cell incubator containing 5% CO2 at 37° C. using gelatin-coated tissue culture flasks. The cells were sub-cultured by trypsin mediated detachment every 2-3 days following the instructions provided by the ATCC. Cells were serially transferred into culture flasks when the culture was 80-90% confluent and used for the protection assay between passages +3 to +10. That is, 3 to 10 passages beyond the characterised passage number of the cells received from the ATCC.
A suspension of SK-HEP-1 for use in the cell protection assay was prepared and counted. […] Cells were counted using a Neubauer counting chamber in the presence of trypan blue to assess the percent viability of the cultures.
Fifty μl of the cell suspensions, or medium alone for blanks, prepared at the concentrations described above was placed in wells of a poly-D-lysine coated 96-well microtiter plate. […] Following addition of the solution to the wells, the plates were returned to the incubator and cell viability was assessed after 24, 48 or 72 hr. […]
After the specified period of incubation, cell viability in each well was measured using the CCK-8 cell counting kit (Sigma Aldrich, Milan, Italy) following the manufacturer's instructions. […]

[2] = system: SK-HEP-1 cells; assay: Cell protection assay: viability of SK-HEP-1 cells incubated with doxorubicin, CCK-8 assay; format: cell-based, human; settings: doxorubicin 0.1 μg/ml, defibrotide 50 μg/ml or greater, 72 hours
Experimental: The cytotoxic agent was doxorubicin at a concentration of 0.1 μg/ml. Defibrotide was added to the microplate well at a concentration of 100, 50, 20, 10, 5 or 1 μg/ml. Three replicates of each condition were performed. The viability was assessed after 72 hours with the CCK-8 assay kit as described above. […] (FIG. 2).

[3] = system: HMEC-1 cells; assay: Cell protection assay: viability of HMEC-1 cells incubated with fludarabine, MTT assay; format: cell-based, human; settings: 72 hours
Experimental: The MTT assay is based on the cleavage of tetrazolium salts by mitochondrial dehydrogenase in viable cells leading to the production of an insoluble formazan dye. MTT dye, 10 μl of a 2 mg/ml solution in D-PBS, was added to each well and then the plates were incubated for 3 hours. Plates were then centrifuged and each well aspirated. The dye was solubilised with 200 μl of a mixture DMSO/Ethanol (1:1) and absorbance in the wells was read at 570-590 nm on a microplate reader. A blank well containing only media and cytotoxic drug (fludarabine or doxorubicin) was also run as a control in all experiments.
HMEC-1 cells were cultivated according to the above mentioned procedure. A cell density of 500,000 cells/ml was used for the assay. […] Defibrotide was added to the microplate well at a concentration of 100, 10 or 1 μg/ml. Four replicates of each condition were performed. The viability of the HMEC cells was assessed after 72 hours with the MTT assay described above.
HMEC-1 cells were cultivated according to the above mentioned procedure. A cell density of about 500,000 cells/ml was used for the experiment. The cytotoxic agent was fludarabine at a concentration of 50 μg/ml. Synthetic oligonucleotides (Adenine-Cytosine (AC) of about 16 kDa or Adenine-Cytosine-Guanine-Thymine (ACGT) of about 17 kDa) or defibrotide were added to each well at varying concentrations. Specifically, the AC oligonucleotides were added to each well at a concentration of 1, 10, 100 or […], whereas the ACGT oligonucleotides were added to each well at a concentration of 12.5, 25 or 50 μg/ml. […] Each treatment condition was performed in triplicate. The viability was assessed with the MTT assay after 24, 48 and 72 hours.

Row | Compound | protection from fludarabine-induced cytotoxicity (in words) ([1]; ACGT or glutathione 1.25-80 μg/ml, tPA 10-320 IU/ml) | protection from doxorubicin-induced cytotoxicity (in words) [2] | protection effect against fludarabine-induced cytotoxicity ([3]; fludarabine 10 μg/ml, defibrotide 100 μg/ml) | protection from fludarabine-induced cytotoxicity (in words) ([3]; fludarabine 10 μg/ml, defibrotide 100, 10 or 1 μg/ml) | protection from fludarabine-induced cytotoxicity (in words) ([3]; fludarabine 50 μg/ml, AC 1-500 μg/ml, ACGT 12.5-50 μg/ml, defibrotide 5-100 μg/ml) | cells surviving ([1]; defibrotide 40 μg/ml or greater)
1 | N[C@@H](CCC(=O)N[C@@H](CS)C(=O)NCC(=O)O)C(=O)O [glutathione, Glutathione] | No protection |  |  |  |  | 
2 | defibrotide |  | significantly protected | more than 50% | protected the cells from fludarabine-induced cytotoxicity in a dose-dependent manner | dose-dependent protection | greater than 80%

From patent publication US12584903B2, “Cellular-based method for determining the potency of defibrotide” (GENTIUM S.R.L., priority 2014, dated 2026)
